Results taken from ChEMBL document CHEMBL3044883, “Synthesis, spectral, theoretical, and antimicrobial screening of some heterocyclic oximes” (2011).
Values after ≈ are worked out from the molar mass of the structure shown.

Key:
Format in all cases: functional
Aspergillus niger = test: Antifungal activity against Aspergillus niger after 72 to 96 hr by two-foldserial dilution method
Rhizopus = test: Antifungal activity against Rhizopus after 72 to 96 hr by two-fold serial dilution method
Aspergillus flavus = test: Antifungal activity against Aspergillus flavus after 72 to 96 hr by two-foldserial dilution method
Staphylococcus aureus = test: Antibacterial activity against Staphylococcus aureus after 24 hr by two fold serial dilution method
Klebsiella pneumoniae = test: Antibacterial activity against Klebsiella pneumoniae after 24 hr by two fold serial dilution method
Escherichia coli = test: Antibacterial activity against Escherichia coli after 24 hr by two-fold serial dilution method
Pseudomonas aeruginosa = test: Antibacterial activity against Pseudomonas aeruginosa after 24 hr by two-fold serial dilution method

MIC (Aspergillus niger) [µg/mL] | MIC (Rhizopus) [µg/mL] | MIC (Aspergillus flavus) [µg/mL] | MIC (Staphylococcus aureus) [µg/mL] | MIC (Klebsiella pneumoniae) [µg/mL] | MIC (Escherichia coli) [µg/mL] | MIC (Pseudomonas aeruginosa) [µg/mL] | SMILES
25 (≈ 86.7 µM) | 50 (≈ 173 µM) | 50 (≈ 173 µM) | 100 (≈ 347 µM) | 100 (≈ 347 µM) | 50 (≈ 173 µM) | 100 (≈ 347 µM) | CC1/C(=N\O)CC(c2ccco2)N(C=O)C1c1ccco1 (centres undefined)
25 (≈ 82.7 µM) | 25 (≈ 82.7 µM) | 50 (≈ 165 µM) | 100 (≈ 331 µM) | 50 (≈ 165 µM) | 50 (≈ 165 µM) | 100 (≈ 331 µM) | CCC1/C(=N\O)CC(c2ccco2)N(C=O)C1c1ccco1 (centres undefined)
12.5 (≈ 39.5 µM) | 50 (≈ 158 µM) | 12.5 (≈ 39.5 µM) | 50 (≈ 158 µM) | 25 (≈ 79 µM) | 25 (≈ 79 µM) | 50 (≈ 158 µM) | CC(C)C1/C(=N\O)CC(c2ccco2)N(C=O)C1c1ccco1 (centres undefined)

Second part, the compound before the results:

SMILES | MIC (Aspergillus niger) [µg/mL] | MIC (Rhizopus) [µg/mL] | MIC (Aspergillus flavus) [µg/mL] | MIC (Staphylococcus aureus) [µg/mL] | MIC (Klebsiella pneumoniae) [µg/mL] | MIC (Escherichia coli) [µg/mL] | MIC (Pseudomonas aeruginosa) [µg/mL]
O=CN1C(c2ccco2)C/C(=N/O)C(Cc2ccccc2)C1c1ccco1 (centres undefined) | 25 (≈ 68.6 µM) | 50 (≈ 137 µM) | 25 (≈ 68.6 µM) | 25 (≈ 68.6 µM) | 25 (≈ 68.6 µM) | 25 (≈ 68.6 µM) | 25 (≈ 68.6 µM)
C[C@@H]1[C@H](O)[C@@H](C)/C=C/C=C/C=C/C=C/C=C/C=C/C=C/[C@H](O[C@@H]2O[C@H](C)[C@@H](O)[C@H](N)[C@@H]2O)C[C@@H]2O[C@](O)(C[C@@H](O)C[C@@H](O)[C@H](O)CC[C@@H](O)C[C@@H](O)CC(=O)O[C@H]1C)C[C@H](O)[C@H]2C(=O)O [AMPHOTERICIN B] | 50 (≈ 54.1 µM) | 50 (≈ 54.1 µM) | 25 (≈ 27.1 µM) |  |  |  | 
O=C(O)c1cn(C2CC2)c2cc(N3CCNCC3)c(F)cc2c1=O [CIPROFLOXACIN] |  |  |  | 50 (≈ 151 µM) |  | 25 (≈ 75.4 µM) | 50 (≈ 151 µM)
